From patent publication US11078496B2, “System for F-box hormone receptor regulated protein expression in mammalian cells” (ICAHN SCHOOL OF MEDICINE AT MOUNT SINAI, priority 2016, dated 2021) come the findings set out here.

The subject of this assay is A-CHK1 mESCs. The assay is described as follows: Aphidicolin sensitivity of A-CHK1 mESCs (crystal violet staining). The format is cell-based, mouse. How it is done:
FIG. 5A is a western blot analysis depicting endogenous CHK1 (*) and AID^47-CHK1 (A-CHK1, **) in four selected clones and in parental non-infected mESCs. […] serves as a loading control. Experiment was repeated three times for clones #1 and #2, and a representative blot is presented. In FIG. 5B, A-CHK1 #2 mESCs were treated with ethanol (“Con”) or auxin (“IAA”) for 1 day. Cells were then treated with the indicated concentrations of aphidicolin (“Aph”). Equal concentrations of DMSO were applied to all conditions. The next day, cells were stained with crystal violet and plates were scanned. […] In FIG. 5C, mESC clones were pretreated with […] aphidicolin for 1 day and were then treated with auxin for the indicated time periods. Left panel: mitotic index was calculated as the percentage of H3^pS10-positive cells with 4N DNA content, measured by flow cytometry. […] Tyr15 phosphorylation of CDK1 (“CDKlpY^15”) was detected using a phospho-specific antibody. β-Actin serves as a loading control. […]
CCE mESCs were infected with pRAIDRS A-CHK1 or GFP-A. Selected clones were analyzed for their CHK1-dependent response to aphidicolin treatment. […] Cells were then treated with 1 μM 5 aphidicolin (“Aph”) or 0.001% DMSO for 12 hours and analyzed for DNA content using propidium iodide (“PI”). […] Apoptotic index was calculated as the percentage of Annexin V-positive, 7-AAD-negative cells. […]

In the case of `C[C@@]1(CO)[C@H](O)CC[C@@]2(C)[C@H]1CC[C@H]1C[C@@H]3C[C@@]12CC[C@]3(O)CO` [aphidicolin, Aphidicolin], the “aphidicolin concentration after which cells died” value (auxin-treated (CHK1-depleted) A-CHK1 mESCs) is 0.1 mM. Moreover, where the note is “control-treated A-CHK1 cells versus auxin-treated cells”, the “fold higher aphidicolin concentration at which control cells survived” value is on record as 100 fold.
